Biological target: T1, C5a anaphylatoxin chemotactic receptor 1 (Homo sapiens, UniProt P21730)
T1 sequence (P21730 whole entry): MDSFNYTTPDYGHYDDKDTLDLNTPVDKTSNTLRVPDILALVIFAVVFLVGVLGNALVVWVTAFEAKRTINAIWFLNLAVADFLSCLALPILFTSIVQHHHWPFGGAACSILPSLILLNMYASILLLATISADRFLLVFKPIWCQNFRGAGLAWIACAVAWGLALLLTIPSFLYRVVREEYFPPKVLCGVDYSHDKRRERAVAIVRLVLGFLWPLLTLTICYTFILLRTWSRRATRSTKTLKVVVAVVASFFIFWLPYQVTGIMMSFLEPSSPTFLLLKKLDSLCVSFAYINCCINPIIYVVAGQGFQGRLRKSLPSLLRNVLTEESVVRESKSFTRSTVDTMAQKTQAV
Test: chemotaxis assay
Protocol: Optionally, compounds may be further assayed for their ability to inhibit chemotaxis in cells. Chemotaxis assays are performed using 5 μm pore polycarbonate, polyvinylpyrrolidone-coated filters in 96-well chemotaxis chambers (Neuroprobe; Gaithersburg, Md.) using chemotaxis buffer (Hank's balanced salt solution (HBSS) and 1% FBS). C5aR ligands (i.e., C5a, R&D Systems; Minneapolis, Minn.) are use to evaluate compound mediated inhibition of C5aR mediated migration. Other chemokines (i.e., SDF-1α; R&D Systems; Minneapolis, Minn.) are used as specificity controls. The lower chamber is loaded with 29 μl of chemokine (i.e., 0.03 nM C5a) and varying amounts of compound; the top chamber contains 100,000 U937 or neutrophil cells in 20 μl. The chambers are incubated 1.5 hours at 37° C., and the number of cells in the lower chamber quantified either by direct cell counts in five high powered fields per well or by the CyQuant assay (Molecular Probes), a fluorescent dye method that measures nucleic acid content and microscopic observation.

For `Cc1cccc(OCC(C)C)c1-n1nc2c(c1-c1ccc(NC(N)=O)cc1)CN(c1cccc(C(C)(C)C)n1)CC2` [US11478460, Compound 1.394], the IC50 was under 5 nM.

`Cc1cccc(OCC(C)C)c1-n1nc2c(c1-c1ccc(NC(N)=O)c(F)c1)CN(c1ncc(Cl)cc1F)CC2` [US11478460, Compound 1.250] gave an IC50 of under 5 nM.
